From US8232308B2, “Methods for treating a disease in which Rho kinase is involved” (UBE Industries, Ltd., priority 2003, dated 2012) come the findings set out here.

Counter-ions that a name gives are not always drawn.

The term melting point denotes the temperature, or range, at which the solid turns liquid.

For `C=CCOc1c(-c2ccc(C(C)(C)N)cc2)ccc2[nH]ncc12` (as salt: hydrochloride) [Compound 5-57, 4-Allyloxy-5-[4-(1-amino-1-methylethyl)phenyl]-1H-indazole dihydrochloride], the melting point was 205 to 207 °C (dec.).

Take `CC(C)(N)c1ccc(-c2ccc3[nH]ncc3c2NCc2ccccc2)cc1` (as salt: hydrochloride) [Compound 5-6, 5-[4-(1-Amino-1-methylethyl)phenyl]-4-benzylamino-1H-indazole dihydrochloride]: the melting point is 185 to 192 °C (dec.). In the case of `CC(C)(N)c1ccc(-c2ccc3[nH]ncc3c2-n2cccc2)cc1` (as salt: hydrochloride) [Compound 5-39, 5-[4-(1-Amino-1-methylethyl)phenyl]-4-(pyrrol-1-yl)-1H-indazole dihydrochloride], the melting point is 244 to 247 °C (dec.). Regarding `CCC(N)(CC)c1ccc(-c2ccc3[nH]ncc3c2OC2CC2)nc1` (as salt: hydrochloride) [Compound 5-71, 5-[5-(1-Amino-1-ethylpropyl)pyridin-2-yl]-4-cyclo-propyloxy-1H-indazole trihydrochloride], the melting point was 207 to 209 °C (dec.).

Take `CCN(CC)c1c(-c2ccc(C(C)(C)N)cc2)ccc2[nH]ncc12` (as salt: hydrochloride) [Compound 5-31, 5-[4-(1-Amino-1-methylethyl)phenyl]-4-diethylamino-1H-indazole trihydrochloride]: the melting point is 182 to 184 °C (dec.). In the case of `CC(C)(N)c1ccc(-c2ccc3[nH]nc(C(=O)O)c3c2)cc1` (as salt: hydrochloride) [Compound 5-9, 5-[4-(1-Amino-1-methylethyl)phenyl]-3-carboxy-1H-indazole monohydrochloride] it was 274 to 280 °C (dec.). For `CCC(N)(CC)c1ccc(-c2ccc3[nH]ncc3c2OC(F)F)cc1` (as salt: hydrochloride) [Compound 5-72, 5-[4-(1-Amino-1-ethylpropyl)phenyl]-4-difluoro-methoxy-1H-indazole dihydrochloride], the melting point lay within 234 to 237 °C. In the case of `CN(C)c1c(-c2ccc(C(C)(C)N)cc2)ccc2[nH]ncc12` (as salt: hydrochloride) [Compound 5-16, 5-[4-(1-Amino-1-methylethyl)phenyl]-4-dimethylamino-1H-indazole trihydrochloride] it was 219 to 224 °C (dec.); in that of `CC(=O)Nc1c(-c2ccc(C(C)(C)N)cc2)ccc2[nH]ncc12` (as salt: hydrochloride) [Compound 5-18, 4-(N-Acetylamino)-5-[4-(1-amino-1-methylethyl)-phenyl]-1H-indazole dihydrochloride], 218 to 221 °C; in that of `NCc1ccc(-c2ccc3[nH]ncc3c2[N+](=O)[O-])cc1` (as salt: hydrochloride) [Compound 5-19, 5-[4-(Aminomethyl)phenyl]-4-nitro-1H-indazole dihydrochloride], 269 to 274 °C (dec.). Regarding `CN(C)/C=C/C(=O)c1c(-c2ccc(C(C)(C)NC(=O)OC(C)(C)C)cc2)ccc2nn(C3CCCCO3)cc12` (stereo not drawn) [Compound 29, 5-[4-(1-tert-butoxycarbonylamino-1-methylethyl)phenyl]-4-(3-dimethylaminoacryloyl)-2-(tetra-hydropyran-2-yl)-2H-indazole], the melting point was 191 to 194 °C. In the case of `CC(C)(N)c1ccc(-c2ccc3[nH]ncc3c2OC2CC2)nc1` (as salt: hydrochloride) [Compound 5-70, 5-[5-(1-Amino-1-methylethyl)pyridin-2-yl]-4-cyclo-propyloxy-1H-indazole trihydrochloride] it was 203 to 205 °C (dec.).

As for `C=C(C)c1n[nH]c2ccc(-c3ccc(C(C)(C)N)cc3)cc12` (as salt: trifluoroacetate) [Compound 5-15, 5-[4-(1-Amino-1-methylethyl)phenyl]-3-(1-methyl-vinyl)-1H-indazole monotrifluoroacetate], the melting point is 221 to 225 °C (dec.). The figure for `CC(C)(N)c1ccc(-c2ccc3[nH]ncc3c2O)cc1` (as salt: hydrochloride) [Compound 5-48, 5-[4-(1-Amino-1-methylethyl)phenyl]-4-hydroxy-1H-indazole dihydrochloride] is 194 to 198 °C (dec.); for `CC(C)(N)c1ccc(-c2ccc3[nH]ncc3c2C2CC2)nc1` (as salt: hydrochloride) [Compound 5-29, 5-[5-(1-Amino-1-methylethyl)pyridin-2-yl]-4-cyclo-propyl-1H-indazole trihydrochloride] it is 209 to 213 °C (dec.). Regarding `CCOc1c(-c2ccc(C(C)(C)N)cc2)ccc2[nH]ncc12` (as salt: hydrochloride) [Compound 5-49, 5-[4-(1-Amino-1-methylethyl)phenyl]-4-ethoxy-1H-indazole dihydrochloride], the melting point is 248 to 256 °C (dec.).

On to `C=Cc1c(-c2ccc(C(C)(C)N)cn2)ccc2[nH]ncc12` (as salt: hydrochloride) [Compound 5-30, 5-[5-(1-Amino-1-methylethyl)pyridin-2-yl]-4-vinyl-1H-indazole trihydrochloride], for which the melting point is 162 to 166 °C (dec.). In the case of `CC(C)Oc1c(-c2ccc(C(C)(C)N)cn2)ccc2[nH]ncc12` (as salt: hydrochloride) [Compound 5-50, 5-[5-(1-Amino-1-methylethyl)pyridin-2-yl]-4-isopropoxy-1H-indazole trihydrochloride] it was 211 to 213 °C (dec.); in that of `CC(C)(N)c1ccc(-c2ccc3[nH]ncc3c2C#N)cc1` (as salt: hydrochloride) [Compound 5-36, 5-[4-(1-Amino-1-methylethyl)phenyl]-4-cyano-1H-indazole monohydrochloride], 270 to 272 °C; in that of `CC(C)(N)c1ccc(-c2ccc3[nH]ncc3c2N2CCCCC2)cc1` (as salt: hydrochloride) [Compound 5-41, 5-[4-(1-Amino-1-methylethyl)phenyl]-4-(piperidin-1-yl)-1H-indazole trihydrochloride], 205 to 208 °C (dec.).

Consider `CC(C)(N)c1ccc(-c2ccc3[nH]ncc3c2CCO)cc1` (as salt: hydrochloride) [Compound 5-32, 5-[4-(1-Amino-1-methylethyl)phenyl]-4-(2-hydroxy-ethyl)-1H-indazole dihydrochloride], for which the melting point was 202 to 203 °C (dec.).

For `CCOc1c(-c2ccc(C(N)(CC)CC)cn2)ccc2[nH]ncc12` (as salt: hydrochloride) [Compound 5-60, 5-[5-(1-Amino-1-ethylpropyl)pyridin-2-yl]-4-ethoxy-1H-indazole trihydrochloride], the melting point was 200 to 202 °C (dec.). Turning to `CC(C)(N)c1ccc(-c2ccc3[nH]ncc3c2OC(F)F)cc1` (as salt: hydrochloride) [Compound 5-53, 5-[4-(1-Amino-1-methylethyl)phenyl]-4-difluoro-methoxy-1H-indazole dihydrochloride], the melting point is 227 to 230 °C (dec.). As for `CN(C)c1c(-c2ccc(CN)cc2)ccc2[nH]ncc12` (as salt: hydrochloride) [Compound 5-23, 5-[4-(Aminomethyl)phenyl]-4-dimethylamino-1H-indazole trihydrochloride], the melting point is 188 to 192 °C (dec.).
